Experimental data reported in publication PMC9578396, “Intrinsic Antibacterial Activity of Xeruborbactam In Vitro: Assessing Spectrum and Mode of Action” (Antimicrobial Agents and Chemotherapy, 2022).
Where two headings read alike, the source gives them in different places.

Key:
Assay type in all cases: cell-based
Klebsiella pneumoniae = test: microbe, parasite or virus in culture
Excerpt: (§1) (i) Panels of engineered bacterial strains containing various combinations of porin and efflux mutations were used. The construction of all the strains used in the study is described in detail in references, [44], and [45]. (ii) KPC-producing clinical isolates and their derivatives that lost KPC plasmids were used also. These strains and their origins are described in the Table S2. (iii) Finally, KPC-producing clinical isolates enriched in strains with porin mutations were used. The mutations identified include various deletions, insertions, nonsense mutations, and decreased expression. Most of the isolates were obtained from JMI Laboratories or International Health Management Associates (IHMA); they were collected in the course of global surveillance studies.
(§2) Bacterial isolates were subjected to broth microdilution susceptibility testing, performed according to Clinical and Laboratory Standards Institute (CLSI) methods ([46]), using panels prepared in-house. […] Xeruborbactam was synthesized at Qpex Biopharma, San Diego, CA. Avibactam was purchased from eNovation Chemicals LLC, Bridgewater, NJ, USA; zidebactam was from MedKoo Biosciences, Inc., Morrisville, NC, and nacubactam was from Advanced ChemBlocks, Hayward, CA. Durlobactam was synthesized at Acme Bioscience, Palo Alto, CA, USA.

Acinetobacter baumannii = test: Broth microdilution MIC (CLSI), Acinetobacter baumannii; settings: Acinetobacter baumannii
Excerpt: as §1, §2

Escherichia coli = test: Broth microdilution MIC (CLSI), Escherichia coli; settings: Escherichia coli
Excerpt: as §1, §2

Pseudomonas aeruginosa = test: Broth microdilution MIC (CLSI), Pseudomonas aeruginosa
Excerpt: as §1, §2

[1] = Klebsiella pneumoniae, strain KPM1026a, wild type, read-out: MIC
[2] = Klebsiella pneumoniae, strain KPM1027, ramR, read-out: MIC
[3] = Klebsiella pneumoniae, strain KPM1171, ramR ompK36_1171, read-out: MIC
[4] = Klebsiella pneumoniae, strain KPM2040, ompK36_2040, read-out: MIC
[5] = Klebsiella pneumoniae, strain KPM2600, ΔompK35
[6] = Klebsiella pneumoniae, strain KPM2613, ΔompK35 ompK36_2040
[7] = Klebsiella pneumoniae, strain KPM2696, ΔacrB
[8] = strain AB1007, wild type, read-out: MIC
[9] = strain ACM1015, ΔadeIJK ΔadeABC
[10] = strain ACM1027, adeN (AdeIJK overexpression)
[11] = strain ACM1030, adeS (AdeABC overexpression)
[12] = strain ECM5497, wild type, read-out: MIC
[13] = strain ECM6502, marR (AcrAB overexpression)
[14] = Pseudomonas aeruginosa, strain PAM1020, wild type, read-out: MIC
[15] = Pseudomonas aeruginosa, strain PAM1032, nalB (MexAB-OprM overexpression)
[16] = Pseudomonas aeruginosa, strain PAM1033, nfxB (MexCD-OprJ overexpression)
[17] = Pseudomonas aeruginosa, strain PAM1034, nfxC (MexEF-OprN overexpression)
[18] = Pseudomonas aeruginosa, strain PAM1106, mexA::Tet
[19] = Pseudomonas aeruginosa, strain PAM1154, oprM::Hg

CO/N=C(\C(=O)N[C@@H]1C(=O)N2C(C(=O)[O-])=C(C[N+]3(C)CCCC3)CS[C@H]12)c1csc(N)n1 [Cefepime]
fold below the MIC that corresponds to complete inhibition of KPC (Klebsiella pneumoniae; KP1074, in the presence of 8 μg/mL xeruborbactam): 2- to 8 fold
MIC (Klebsiella pneumoniae; KP1074, with xeruborbactam 2 µg/ml): 0.5 µg/mL
MIC (Klebsiella pneumoniae; KP1074, with xeruborbactam 4 µg/ml): 0.25 µg/mL
MIC (Klebsiella pneumoniae; KP1074, with xeruborbactam 8 µg/ml): 0.125 µg/mL
MIC (Klebsiella pneumoniae; KPM1026a (no beta-lactamase), xeruborbactam 0 µg/ml): 0.03 µg/mL
fold decrease compared to MIC of antibiotic alone (Klebsiella pneumoniae; KPM1026a, with xeruborbactam at 4 μg/mL): 2 fold
fold decrease compared to MIC of antibiotic alone (Klebsiella pneumoniae; KPM1026a, with xeruborbactam at 8 μg/mL): 16 fold
MIC (Klebsiella pneumoniae; KPM1026a, xeruborbactam 2 µg/ml): 0.015 µg/mL
MIC (Klebsiella pneumoniae; KPM1026a, xeruborbactam 4 µg/ml): 0.015 µg/mL
MIC (Klebsiella pneumoniae; KPM1026a, xeruborbactam 8 µg/ml): 0.002 µg/mL
fold decrease compared to MIC of antibiotic alone (Klebsiella pneumoniae; KPM3532 (TolQ::M189K), with xeruborbactam at 4 μg/mL): 2 fold
fold decrease compared to MIC of antibiotic alone (Klebsiella pneumoniae; KPM3532 (TolQ::M189K), with xeruborbactam at 8 μg/mL): 4 fold
fold decrease compared to MIC of antibiotic alone (Klebsiella pneumoniae; KPM3534 (TolQ::S31F), with xeruborbactam at 4 μg/mL): 4 fold
fold decrease compared to MIC of antibiotic alone (Klebsiella pneumoniae; KPM3534 (TolQ::S31F), with xeruborbactam at 8 μg/mL): 8 fold
MIC (Klebsiella pneumoniae; Klebsiella pneumoniae, BAA2814, KPC-3-producing KP1074 (BAA-2814), xeruborbactam none, read-out: MIC): 256 µg/mL
MIC (Klebsiella pneumoniae; Klebsiella pneumoniae, KPM1026a, alone, read-out: MIC): 0.03 µg/mL
MIC (Klebsiella pneumoniae; Klebsiella pneumoniae, KPM1026a, parent, read-out: MIC): 0.03 µg/mL
MIC (Klebsiella pneumoniae; Klebsiella pneumoniae, KPM1211 (KP1074 after loss of pKpQIL), read-out: MIC): 0.5 µg/mL
MIC (Klebsiella pneumoniae; Klebsiella pneumoniae, KPM1271 (KPM1026a/KPC-3), alone, read-out: MIC): 4 µg/mL
MIC (Klebsiella pneumoniae; Klebsiella pneumoniae, KPM1281 (KPM1026a/NDM-1), alone, read-out: MIC): 16 µg/mL
MIC (Klebsiella pneumoniae; Klebsiella pneumoniae, KPM3532 (TolQ::M189K), alone): 0.06 µg/mL
MIC (Klebsiella pneumoniae; Klebsiella pneumoniae, KPM3532, TolQ::M189K): 0.06 µg/mL
MIC (Klebsiella pneumoniae; Klebsiella pneumoniae, KPM3534 (TolQ::S31F), alone): 0.125 µg/mL
MIC (Klebsiella pneumoniae; Klebsiella pneumoniae, KPM3534, TolQ::S31F): 0.125 µg/mL
MIC (Klebsiella pneumoniae; Klebsiella pneumoniae, KPM4127 (KPM3532 TolQ::M189K/KPC-3), alone): 8 µg/mL
MIC (Klebsiella pneumoniae; Klebsiella pneumoniae, KPM4128 (KPM3534 TolQ::S31F/KPC-3), alone): 32 µg/mL
MIC (Klebsiella pneumoniae; Klebsiella pneumoniae, KPM4129 (KPM3532 TolQ::M189K/NDM-1), alone): 8 µg/mL
MIC (Klebsiella pneumoniae; Klebsiella pneumoniae, KPM4130 (KPM3534 TolQ::S31F/NDM-1), alone): 32 µg/mL
MIC (Klebsiella pneumoniae; Klebsiella pneumoniae, KPM4235, TolQ::IP(183–1844)PR): 0.125 µg/mL
MIC (Klebsiella pneumoniae; Klebsiella pneumoniae, KPM4236, TolQ::TAA at aa 103): 0.125 µg/mL
MIC (Klebsiella pneumoniae; Klebsiella pneumoniae, KPM4238, TolQ::S25F): 0.125 µg/mL
MIC (Klebsiella pneumoniae; Klebsiella pneumoniae, KPM4239, TolQ::S28F): 0.125 µg/mL
MIC (Klebsiella pneumoniae; Klebsiella pneumoniae, KPM4240, TolQ::S25Y): 0.125 µg/mL
MIC (Klebsiella pneumoniae; [1]): 0.03 µg/mL
MIC (Klebsiella pneumoniae; [2]): 0.25 µg/mL
MIC (Klebsiella pneumoniae; [3]): 2 µg/mL
MIC (Klebsiella pneumoniae; [4]): 0.125 µg/mL
MIC (Klebsiella pneumoniae; [5]): 0.25 µg/mL
MIC (Klebsiella pneumoniae; [6]): 0.25 µg/mL
MIC (Klebsiella pneumoniae; [7]): 0.03 µg/mL
MIC (Acinetobacter baumannii; AB1007 (no beta-lactamase), xeruborbactam 0 µg/ml, read-out: MIC): 2 µg/mL
MIC (Acinetobacter baumannii; AB1007, xeruborbactam 2 µg/ml, read-out: MIC): 2 µg/mL
MIC (Acinetobacter baumannii; AB1007, xeruborbactam 4 µg/ml, read-out: MIC): 1 µg/mL
MIC (Acinetobacter baumannii; AB1007, xeruborbactam 8 µg/ml, read-out: MIC): 0.25 µg/mL
MIC (Acinetobacter baumannii; [8]): 4 µg/mL
MIC (Acinetobacter baumannii; strain ACM1013, ΔadeIJK): 4 µg/mL
MIC (Acinetobacter baumannii; strain ACM1014, ΔadeABC): 1 µg/mL
MIC (Acinetobacter baumannii; [9]): 0.25 µg/mL
MIC (Acinetobacter baumannii; [10]): 8 µg/mL
MIC (Acinetobacter baumannii; [11]): 32 µg/mL
MIC (Escherichia coli; [12]): 0.03 µg/mL
MIC (Escherichia coli; strain ECM6001, ΔacrB): 0.03 µg/mL
MIC (Escherichia coli; [13]): 0.125 µg/mL
MIC (Pseudomonas aeruginosa; PAM1154 (oprM::Hg), xeruborbactam 0 µg/ml): 0.5 µg/mL
MIC (Pseudomonas aeruginosa; PAM1154, xeruborbactam 2 µg/ml): 0.125 µg/mL
MIC (Pseudomonas aeruginosa; PAM1154, xeruborbactam 4 µg/ml): 0.125 µg/mL
MIC (Pseudomonas aeruginosa; PAM1154, xeruborbactam 8 µg/ml): 0.06 µg/mL
MIC (Pseudomonas aeruginosa; [14]): 0.5 µg/mL
MIC (Pseudomonas aeruginosa; [15]): 4 µg/mL
MIC (Pseudomonas aeruginosa; [16]): 4 µg/mL
MIC (Pseudomonas aeruginosa; [17]): 0.5 µg/mL
MIC (Pseudomonas aeruginosa; [18]): 0.25 µg/mL
MIC (Pseudomonas aeruginosa; [19]): 0.125 µg/mL

NCCONC(=O)[C@@H]1CC[C@@H]2CN1C(=O)N2OS(=O)(=O)O [Nacubactam]
MIC (Klebsiella pneumoniae; [1]): 8 µg/mL
MIC (Klebsiella pneumoniae; [2]): 4 µg/mL
MIC (Klebsiella pneumoniae; [3]): > 64 µg/mL
MIC (Klebsiella pneumoniae; [4]): > 64 µg/mL
MIC (Klebsiella pneumoniae; [5]): 8 µg/mL
MIC (Klebsiella pneumoniae; [6]): > 64 µg/mL
MIC (Klebsiella pneumoniae; [7]): 2 µg/mL
MIC (Acinetobacter baumannii; [8]): > 256 µg/mL
MIC (Acinetobacter baumannii; strain ACM1013, ΔadeIJK): > 256 µg/mL
MIC (Acinetobacter baumannii; strain ACM1014, ΔadeABC): > 256 µg/mL
MIC (Acinetobacter baumannii; [9]): > 256 µg/mL
MIC (Acinetobacter baumannii; [10]): > 256 µg/mL
MIC (Acinetobacter baumannii; [11]): > 256 µg/mL
MIC (Escherichia coli; [12]): 4 µg/mL
MIC (Escherichia coli; strain ECM6001, ΔacrB): 4 µg/mL
MIC (Escherichia coli; [13]): 2 µg/mL
MIC (Pseudomonas aeruginosa; [14]): 128 µg/mL
MIC (Pseudomonas aeruginosa; [15]): 128 µg/mL
MIC (Pseudomonas aeruginosa; [16]): 32 µg/mL
MIC (Pseudomonas aeruginosa; [17]): 128 µg/mL
MIC (Pseudomonas aeruginosa; [18]): 128 µg/mL
MIC (Pseudomonas aeruginosa; [19]): 128 µg/mL
